Measured values as given in US20060165743A1, “Method and device to control and condition the behavior of the varroa destructor mite in a beehive, or in other environment where bees reproduce” (Universita' Degli Studi Di Udine, priority 2002, published 2006).

Tests used:
Varroa destructor mite [1] = test: Activity test in artificial observation plates (treated wells vs solvent control wells, each with a bee larva); type: in vivo; conditions: for AVERAGE ACTIVITY TREATED: 6 observations in 30 min, 34° C., 75% RH, dark
Procedure: The activity of (±)-2-hydroxyhexanoic acid and of (±)-3-hydroxyhexanoic acid, dissolved in water, was tested in a plate 10 (FIG. 1). Each plate 10 consists of a parallelepiped of sodium-calcium glass with a 70×70 mm square base, and a height of 12 mm, in which four cylindrical wells 12a, 12b, are made, each with a diameter of 7 mm and a depth of 10 mm, similar in size to bee cells. The wells 12a, 12b are equidistant from the center. At the center of the plate 10 a Varroa destructor mite was placed, indicated by the number 11. To delimit the space in which the mite 11 could move, the plates 10 were closed with a cover element 15 consisting of a glass disk joined to a stainless steel spacer ring 17. Two opposite wells 12a of each plate 10 were treated with (±)-2-hydroxyhexanoic acid or with (±)-3-hydroxyhexanoic acid, dissolved in water; the other two wells 12b, on the contrary, were used as controls and were treated only with the solvent. In each individual well 12a, 12b of the plate 10 a bee larva 20 was then placed. The biological activity test on (±)-2-hydroxyhexanoic acid provides a first test during which 1 ng of (±)-2-hydroxyhexanoic acid is tested, a second test during which 10 ng of (±)-2-hydroxyhexanoic acid are tested and a third test during which 100 ng are tested and a fourth test during which 1000 ng are tested. The biological activity test on (±)-3-hydroxyhexanoic acid provides a first test during which 10 ng of (±)-3-hydroxyhexanoic acid are tested, a second test during which 100 ng of (±)-3-hydroxyhexanoic acid are tested, and a third test during which 1000 ng are tested. At the beginning of each test the Varroa destructor mite 11, in this case a female adult, is located at the center of each plate 10 with a thin brush; each plate 10 is then closed and transferred to a thermostatic chamber. Subsequently, the position of the mite 11 was monitored every 5 minutes for a total of 30 minutes, to a total of 6 observations. 20 plates were used for every test, with 4 repetitions, to a total of 80 plates. During the tests the temperature and relative humidity were kept respectively around 34° C. and 75%; the inside of the thermostatic chamber was kept dark. The action of the substances tested on the Varroa destructor mite was evaluated by calculating an average value for the treated wells 12a and the control wells 12b, equal to the average number of times in which the Varroa destructor mite was observed inside one or the other in the 6 observations made in the course of the 30 minutes of each test. The average values thus obtained are representative, with a certain approximation, of the time spent by the mite in the two types of well 12a, 12b. The attractiveness of a substance thus determines higher average values for the treated wells 12a with respect to those of the control wells 12b.

Varroa destructor mite [2] = test: Activity test in the beehive (cells with worker bee larvae near to opercolature); type: in vivo; conditions: 100 ng in 1 μl solvent per cell, 18 hours after treatment
Procedure: (±)-2-hydroxyhexanoic acid was also tested in the beehive, by applying, in the cells with worker bee larvae near to opercolature, a solution of 100 ng of (±)-2-hydroxyhexanoic acid dissolved in 1 μl of a suitable solvent. The infestation of such cells was compared with that of the control cells treated with the solvent alone: the cells used were examined 18 hours after treatment and the Varroa destructor mites present in the treated cells and in the control cells were counted.

Row | SMILES | AVERAGE ACTIVITY TREATED (Varroa destructor mite [1]; 100 ng in treated wells) | Activity on / attractiveness to the Varroa destructor mite (infestation of treated wells vs control wells), in words (Varroa destructor mite [1]; dose 100 ng) | AVERAGE ACTIVITY TREATED (Varroa destructor mite [1]; 1 ng in treated wells) | AVERAGE ACTIVITY TREATED (Varroa destructor mite [1]; 10 ng in treated wells) | AVERAGE ACTIVITY TREATED (Varroa destructor mite [1]; 1000 ng in treated wells) | Activity on / attractiveness to the Varroa destructor mite (infestation of treated wells vs control wells), in words (Varroa destructor mite [1]; dose 10 ng) | Number of Varroa destructor mites per cell in treated cells vs non-treated cells, in words (Varroa destructor mite [2]) | N. OF VARROA DESTRUCTOR MITE PER CELL TREATED, Average (Varroa destructor mite [2]; average of 5 replications)
1 | CCCCCCC(O)C(=O)O (racemic) [(±)-2-hydroxyoctanoic acid, reference compound] | 29.5 | not found to be active | – | – | – | – | – | –
2 | CCCCC(O)C(=O)O (racemic) [(±)-2-hydroxyhexanoic acid] | 34.7 | active on and attractive to the Varroa destructor mite | 22.3 | 31.8 | 23.0 | active on and attractive to the Varroa destructor mite | significantly greater | 0.60
3 | CCCC(O)CC(=O)O (racemic) [(±)-3-hydroxyhexanoic acid] | 36.8 | active on and attractive to the Varroa destructor mite | – | 24.5 | 23.3 | – | – | –
